Data reported in patent US5801254A, “Arteminolide derivatives and process for the manufacture thereof” (Korea Institute of Science and Technology, priority 1996, dated 1998).
Like-named read-outs stand apart in the source and are kept apart here.

What was measured:
[1] = target: T1, farnesyl-protein transferase (FPTase) (Rattus norvegicus, UniProt Q02293+Q04631); test: Farnesyl-protein transferase inhibiting activity, scintillation proximity assay with 3H-FPP and biotin-lamin B peptide; format: biochemical; conditions: read-out: IC50 values for FPTase Inhibition
T1 construct: a cerebrum obtained from white rat; from tissue; host or cells: rat cerebrum (male Sprague-Dawley, 100-150 g), homogenate, partially purified on Q Sepharose Fast Flow
Experimental: First, a cerebrum obtained from white rat(male Spraguo Dowley 100-150 g) was washed with physiological saline solution and homogenized. The homogenized solution was centrifuged and partially purified by using Q sepharose fast flow column to obtain farnesyl protein transferase(FPTase).
10 μl of a sample, 40 μl of FPTase obtained above, 10 μl of an assay buffer(50 mM Tris-HCl, pH 7.5, 25 mM MgCl2, 2 mM KCl, 5 mM DTT, 5 mM Na2 HPO4, 0.01% Triton X-100), 20 μl of diluted ^3 H-FPP and 20 μl of biotin-lamin B peptide were mixed together and the resulting mixture was reacted at room temperature for 30 minutes. 150 μl of SPA bead/stop reagent solution was added to the mixture and the enzymatic activity was determined by examining the extent of biotin lamin B peptide farneslyation, expressed by a unit of count per minute(CPM), with a liquid scintillation counter.

[2] = tested on: angiogenesis, chorioallantoic membrane (CAM); test: Angiogenesis suppressing activity, chorioallantoic membrane (CAM) assay; format: in vivo; conditions: fertilized chicken egg, read-out: IC50 values for Angiogenesis Suppression
Experimental: Angiogenesis was determined in accordance with the chorioallantoic membrane(CAM) assay method of Kusaka et al. described in Biochem. Biophy. Res. Comm., 174, 1070(1991) by using a fertilized chicken egg.
A fertilized chicken egg(Pulmuwon co., Korea) was incubated at 37°-38° C. and a humidity of more than 90%. Here, 0 day-embryo means that the fertilized egg had been storaged at 18° C. for no more than 3-4 days since laying.
The pointed end of the fertilized egg was scratched with a knife, laid horizontally, the scratched site was punctured with a 5 ml syringe and 2 ml of albumin was extracted from the fertilized egg. The puncture hole was then sealed with a glass-tape. The fertilized egg, laid such that the sealed hole is located at the bottom, was incubated under the same condition described above.
The other end of the fertilized egg where the air sac is located, i.e., the end opposite to the hole site was opened, a window having a diameter of 2-3 cm was installed therein, the window was sealed with a glass-tape, and the incubation was resumed.
At this time, a chorioalletoic membrane(CAM) of 2-5 mm diameter develop. A arteminolide sample was dissolved in distilled water or ethanol, 10 μl of the sample solution was dropped on quartered Thermanox coverslip(Nunc, Co.,) and dried in a clean bench. The sealing glass-tape was removed, the treated Thermanox coverslip obtained above was laid on the CAM and then sealed with a glass-tape. All tools used in the above procedure were pre-sterilized with 70% ethanol.
The sealing glass-tape was removed. 1 ml of Intralipose(fat emulsion, Green Cross co., Korea) was taken with syringe, removed an air bobble therefrom and injected into an area below the CAM.
Angiogenesis suppressing activity was then calculated in accordance with the following equation: [formula]

Solubility = format: physicochemical
[3] = MeOH, acetone, chloroform, DMSO

| IC50 [1] | Solubility (Solubility; [3]) | Solubility (Solubility; hexane, H2O) | IC50 ([1]; listed as C) | IC50 ([1]; listed as E) | SMILES | IC50 ([2]; listed as A) | IC50 ([2]; Gallus gallus) | IC50 ([2]; listed as C) | IC50 ([2]; listed as E) | IC50 ([2]; listed as F) |
| --- | --- | --- | --- | --- | --- | --- | --- | --- | --- | --- |
| – | soluble | insoluble | 740 nM | – | C=C1C(=O)OC2C1CCC(C)(O)C13C=CC(C)(C21)C1(C3)C(=O)OC2C3C(C)=CC(=O)C3=C(C)CC(OC(=O)/C(C)=C\C)C21 (stereo not drawn) [Arteminolide C] | – | – | 0.5 µM | – | – |
| 630 nM | soluble | insoluble | – | – | C=C1C(=O)OC2C1CCC(C)(O)C13C=CC(C)(C21)C1(C3)C(=O)OC2C3C(C)=CC(=O)C3=C(C)CC(OC(=O)/C(C)=C/C)C21 (stereo not drawn) [Arteminolide D] | – | 6.2 µM | – | – | – |
| – | – | insoluble | – | 150000 nM | C=C1C(=O)OC2C1CCC(C)(O)C13C=CC(C)(C21)C1(C3)C(=O)OC2C3C(C)=CC(=O)C3=C(C)CC(OC(=O)/C(C)=C\C)C21 (stereo not drawn) [Arteminolide E] | – | – | – | 20 µM | – |

The remaining lines, values behind:

| SMILES | IC50 [1] | Solubility (Solubility; [3]) | Solubility (Solubility; hexane, H2O) | IC50 ([1]; listed as C) | IC50 ([1]; listed as E) | IC50 ([2]; listed as A) | IC50 ([2]; Gallus gallus) | IC50 ([2]; listed as C) | IC50 ([2]; listed as E) | IC50 ([2]; listed as F) |
| --- | --- | --- | --- | --- | --- | --- | --- | --- | --- | --- |
| C=C1C(=O)OC2C1CCC(C)(O)C13C=CC(C)(C21)C1(C3)C(=O)OC2C3C(C)=CC(=O)C3=C(C)CC(OC(=O)CC(C)C)C21 (stereo not drawn) [Arteminolide A] | 380 nM | – | – | – | – | 5.4 µM | – | – | – | – |
| C=C1C(=O)OC2C1CCC(C)(O)C13C=CC(C)(C21)C1(C3)C(=O)OC2C3C(C)=CC(=O)C3=C(C)CC(OC(=O)C=C(C)C)C21 (stereo not drawn) [Arteminolide B] | 400 nM | soluble | insoluble | – | – | – | 5.2 µM | – | – | – |
| C=C1C(=O)OC2C1CCC(C)(O)C13C=CC(C)(C21)C1(C3)C(=O)OC2C3C(C)=CC(=O)C3=C(C)CC(OC(=O)CC(C)C)C21 (stereo not drawn) [Arteminolide F] | 160000 nM | soluble | insoluble | – | – | – | – | – | – | 24 µM |
